# Results: patent publication US8841312B2, “Fused pyridine, pyrimidine and triazine compounds as cell cycle inhibitors” (Amgen Inc., priority 2007, dated 2014)
# Target: Cdk4/CyclinD1 (Homo sapiens (Human), UniProt P11802)
# Assay: Cdk4 kinase inhibition assay with recombinant Cdk4/CyclinD1, Rb substrate, [33P]-ATP filter plate
# Assay type: biochemical
# Conditions: 25 μM ATP, read-out: Cdk 4 IC50
# Method in brief: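 Recombinant Cdk4/CyclinD1 or Cdk6/CyclinD3 phosphorylated Rb protein with [33P]-ATP for 1 h at room temperature. Protein was TCA-precipitated on filter plates and bound radioactivity counted. IC50 by nonlinear regression.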
# Sequence of Cdk4/CyclinD1 (P11802 whole entry): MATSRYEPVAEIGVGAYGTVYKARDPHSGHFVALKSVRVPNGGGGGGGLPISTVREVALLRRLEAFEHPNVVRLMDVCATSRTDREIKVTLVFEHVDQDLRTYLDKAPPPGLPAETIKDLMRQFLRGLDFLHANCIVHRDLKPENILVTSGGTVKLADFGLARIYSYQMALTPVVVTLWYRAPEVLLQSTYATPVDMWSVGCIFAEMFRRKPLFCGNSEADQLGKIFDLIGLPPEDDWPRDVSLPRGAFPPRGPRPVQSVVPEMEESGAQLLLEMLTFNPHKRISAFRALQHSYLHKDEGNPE
# Sequence of Cdk4/CyclinD1 (P24385 whole entry partner): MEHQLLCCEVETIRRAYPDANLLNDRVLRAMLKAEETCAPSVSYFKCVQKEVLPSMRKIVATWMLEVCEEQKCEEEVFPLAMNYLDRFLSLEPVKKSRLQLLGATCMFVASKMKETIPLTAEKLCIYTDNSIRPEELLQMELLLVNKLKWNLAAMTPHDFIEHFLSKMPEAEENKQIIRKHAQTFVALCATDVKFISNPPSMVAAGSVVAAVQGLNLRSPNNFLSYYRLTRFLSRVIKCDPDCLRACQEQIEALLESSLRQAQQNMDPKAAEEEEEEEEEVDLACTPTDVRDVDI
row,IC50 [nM],SMILES
1,152,C[C@H](CO)n1c2cnccc2c2cnc(Nc3ccc(N4CC[C@@H](O)C4)cn3)nc21 [Example 382]
2,170,C[C@H]1CN(c2ccc(Nc3ncc4c5ccncc5n([C@H]5CCC[C@@H]5O)c4n3)nc2)CCN1 [Example 401]
3,162,C[C@@H](O)Cn1c2cnccc2c2cnc(Nc3ccc(N4CC[C@@H](O)C4)nn3)nc21 [Example 419]
4,18,"CCN(CC)C1CCN(c2ccc(Nc3ncc4c5ccnc(F)c5n(C5CCCC5)c4n3)nn2)CC1 [Example 277, 9-Cyclopentyl-N-(6-(4-(diethylamino)-1-piperidinyl)-3-pyridazinyl)-8-fluoro-9H-pyrido[4′,3′:4,5]pyrrolo[2,3-d]pyrimidin-2-amine]"
5,4,"NCC1CCN(c2ccc(Nc3ncc4c5ccncc5n(C5CCCC5)c4n3)nc2)CC1 [Example 60, 4-Aminomethyl-1-(6-((9-cyclopentyl-9H-pyrido[4′,3′:4,5]pyrrolo[2,3-d]pyrimidin-2-yl)amino)-3-pyridinyl)-piperidine]"
6,123,"CN(C)C1CCN(c2ccc(Nc3ncc4c5ccncc5n([C@H]5CC[C@H](O)CC5)c4n3)nn2)CC1 [Example 287, Trans-4-(2-((6-(4-(dimethylamino)-1-piperidinyl)-3-pyridazinyl)amino)-9H-pyrido[4′,3′:4,5]pyrrolo[2,3-d]pyrimidin-9-yl)cyclohexanol]"
7,2.3,CC1CN(c2ccc(Nc3ncc4c5ccncc5n(C5CCCC5)c4n3)nc2)CC(C)N1 (centres unmarked) [Example 72]
8,56,CC1CCN(c2ccc(Nc3ncc4c5ccncc5n(C5CCCC5)c4n3)nc2)C1 (centres unmarked) [Example 74]
9,11,"c1cc2c3cnc(Nc4ccc(N5CCNCC5)cn4)nc3n(C3CCCCC3)c2cn1 [Example 23, (9-Cyclohexyl-9H-pyrido[4′,3′,4,5]pyrrolo[2,3-d]pyrimidin-2-yl)-(5-piperazin-1-yl-pyridin-2-yl)-amine]"
10,258,CNC1CCN(c2ccc(Nc3ncc4c5ccncc5n([C@H]5CCC[C@H]5O)c4n3)nn2)CC1 [Example 364]
11,1.8,"CC1(C)CCC(n2c3nc(Nc4ccc(N5CCNCC5)cn4)ncc3c3ccnc(O)c32)CC1 [Example 208, 9-(4,4-dimethylcyclohexyl)-2-((5-(1-piperazinyl)-2-pyridinyl)amino)-9H-pyrido[4′,3′:4,5]pyrrolo[2,3-d]pyrimidin-8-ol]"
12,17,CC1(C)CN(c2ccc(Nc3ncc4c5ccncc5n([C@@H]5CCOC5)c4n3)nc2)CCN1 [Example 432]
13,248,CC[C@H](C)n1c2cnccc2c2cnc(Nc3ccc(N4CCNCC4)cn3)nc21 [Example 330]
14,1630,CC[C@H](C)n1c2cnccc2c2cnc(Nc3ccc(N4CCC(NC)CC4)cn3)nc21 [Example 335]
15,300,CC[C@H](C)n1c2cnccc2c2cnc(Nc3ccc(N4CCN[C@@H](C)C4)nn3)nc21 [Example 333]
16,100,CN1CCN(c2nc(Nc3ncc4c5ccncc5n(C5CCCC5)c4n3)ns2)CC1 [Example 133]
17,68,"CN(C)CC(=O)N1CCN(c2ccc(Nc3ncc4c5ccnc(F)c5n(C5CCCC5)c4n3)nc2)CC1 [Example 193, 9-Cyclopentyl-N-(5-(4-((dimethylamino)acetyl)-1-piperazinyl)-2-pyridinyl)-8-fluoro-9H-pyrido[4′,3′:4,5]pyrrolo[2,3-d]pyrimidin-2-amine]"
18,24,c1cc2c3cnc(Nc4ccc(N5CCNCC5)nn4)nc3n([C@@H]3CCOC3)c2cn1 [Example 427]
19,5.9,c1cc2c3cnc(Nc4ccc(N5CCC(N6CCCC6)CC5)cn4)nc3n(C3CCCC3)c2cn1 [Example 76]
20,2,"C[C@@H]1CNCCN1c1ccc(Nc2ncc3c4ccnc(F)c4n(C4CCCC4)c3n2)nc1 [Example 180, 9-Cyclopentyl-8-fluoro-N-(5-((2R)-2-methyl-1-piperazinyl)-2-pyridinyl)-9H-pyrido[4′,3′:4,5]pyrrolo[2,3-d]pyrimidin-2-amine]"
21,2,CC[C@H](C)n1c2cnccc2c2cnc(Nc3ccc(N4CC[C@@H](O)C4)cn3)nc21 [Example 336]
22,240,C[C@H](O)Cn1c2cnccc2c2cnc(Nc3ccc(N4CCC(N(C)C)CC4)nn3)nc21 [Example 410]
23,5.2,"Fc1cncc2c1c1cnc(Nc3ccc(N4CCNCC4)cn3)nc1n2C1CCCC1 [Example 58, 9-Cyclopentyl-5-fluoro-N-(5-(1-piperazinyl)-2-pyridinyl)-9H-pyrido[4′,3′:4,5]pyrrolo[2,3-d]pyrimidin-2-amine]"

row,IC50 [nM],SMILES
1,129,C[C@@H](CO)n1c2cnccc2c2cnc(Nc3ccc(N4CCC(N(C)C)CC4)nn3)nc21 [Example 372]
2,11,"CCN(CC)C1CCN(c2ccc(Nc3ncc4c5ccnc(OC)c5n(C5CCCC5)c4n3)nn2)CC1 [Example 283, 9-cyclopentyl-N-(6-(4-(diethylamino)-1-piperidinyl)-3-pyridazinyl)-8-methoxy-9H-pyrido[4′,3′:4,5]pyrrolo[2,3-d]pyrimidin-2-amine]"
3,2.6,NC1CCN(c2cnc(Nc3ncc4c5ccncc5n(C5CCCC5)c4n3)cn2)CC1 [Example 82]
4,3.2,"CN1CCOC2(CCN(c3ccc(Nc4ncc5c6ccncc6n(C6CCCC6)c5n4)nn3)CC2)C1 [Example 251, 9-cyclopentyl-N-(6-(4-methyl-1-oxa-4,9-diazaspiro[5.5]undec-9-yl)-3-pyridazinyl)-9H-pyrido[4′,3′:4,5]pyrrolo[2,3-d]pyrimidin-2-amine]"
5,261,CNC1CCN(c2ccc(Nc3ncc4c5ccncc5n([C@H](C)CO)c4n3)nc2)CC1 [Example 380]
6,350,O[C@@H]1CCN(c2ccc(Nc3ncc4c5ccncc5n([C@H]5CCC[C@@H]5O)c4n3)nc2)C1 [Example 403]
7,166,C[C@H](CO)n1c2cnccc2c2cnc(Nc3ccc(N4CC[C@@H](O)C4)nn3)nc21 [Example 389]
8,10000,c1cc2c3cnc(Nc4nsc(NC5CCNC5)n4)nc3n(C3CCCC3)c2cn1 (centres unmarked) [Example 135]
9,3,"O=C(CO)N1CCN(c2ccc(Nc3ncc4c5ccncc5n(C5CCCC5)c4n3)nc2)CC1 [Example 151, 2-(4-(6-((9-Cyclopentyl-9H-pyrido[4′,3′:4,5]pyrrolo[2,3-d]pyrimidin-2-yl)amino)-3-pyridinyl)-1-piperazinyl)-2-oxoethanol]"
10,33,"COC(=O)CC1CCN(c2ccc(Nc3ncc4c5ccnc(F)c5n(C5CCCC5)c4n3)nc2)CC1 [Example 174, Methyl (1-(6-((9-cyclopentyl-8-fluoro-9H-pyrido[4′,3′:4,5]pyrrolo[2,3-d]pyrimidin-2-yl)amino)-3-pyridinyl)-4-piperidinyl)acetate]"
11,6,"O=C(c1ccc(Nc2ncc3c4ccnc(F)c4n(C4CCCC4)c3n2)nc1)N1CCNCC1 [Example 222, 9-cyclopentyl-8-fluoro-N-(5-(1-piperazinylcarbonyl)-2-pyridinyl)-9H-pyrido[4′,3′:4,5]pyrrolo[2,3-d]pyrimidin-2-amine]"
12,15,CN1CCN(c2cnc(Nc3ncc4c5ccncc5n(C5CCCC5)c4n3)cn2)CC1 [Example 78]
13,430,CNC1CCN(c2ccc(Nc3ncc4c5ccncc5n(C[C@H](C)O)c4n3)nn2)CC1 [Example 411]
14,143,C[C@H](CO)n1c2cnccc2c2cnc(Nc3ccc(N4CCNCC4)nn3)nc21 [Example 384]
15,4.6,"CCN(CC)C1CCN(c2ccc(Nc3ncc4c5ccnc(F)c5n(C5CCCC5)c4n3)nc2)CC1 [Example 278, 9-Cyclopentyl-N-(5-(4-(diethylamino)-1-piperidinyl)-2-pyridinyl)-8-fluoro-9H-pyrido[4′,3′:4,5]pyrrolo[2,3-d]pyrimidin-2-amine]"
16,300,CN(C)C1CCN(c2ccc(Nc3ncc4c5ccncc5n([C@H]5CCOC5)c4n3)nn2)CC1 [Example 395]
17,750,CN(C)C1CCN(c2ccc(Nc3ncc4c5ccncc5n([C@H]5CCC[C@@H]5O)c4n3)nn2)CC1 [Example 405]
18,15,"c1ncc2c(n1)c1cnc(Nc3ccc(N4CCNCC4)cn3)nc1n2C1CCCC1 [Example 59, 5-Cyclopentyl-N-(5-(1-piperazinyl)-2-pyridinyl)-5H-pyrimido[4′,5′:4,5]pyrrolo[2,3-d]pyrimidin-7-amine]"
19,390,CC[C@H](C)n1c2cnccc2c2cnc(Nc3ccc(N4CCNCC4)nn3)nc21 [Example 331]
20,4.5,"OC[C@@H]1CN(c2ccc(Nc3ncc4c5ccnc(F)c5n(C5CCCC5)c4n3)nc2)CCN1 [Example 199, ((2S)-4-(6-((9-cyclopentyl-8-fluoro-9H-pyrido[4′,3′:4,5]pyrrolo[2,3-d]pyrimidin-2-yl)amino)-3-pyridinyl)-2-piperazinyl)methanol]"
21,6.2,c1cc2c3cnc(Nc4ccc(NCC5COCCN5)nn4)nc3n(C3CCCC3)c2cn1 (centres unmarked) [Example 100]
22,1190,CN(C)C1CCN(c2ccc(Nc3ncc4c5ccncc5n([C@H]5CCOC5)c4n3)nc2)CC1 [Example 394]

# Target: Cdk6/CyclinD3 (Homo sapiens (Human), UniProt Q00534)
# Assay: Cdk6 kinase inhibition assay with recombinant Cdk6/CyclinD3, Rb substrate, [33P]-ATP filter plate
# Assay type: biochemical
# Conditions: 25 μM ATP, read-out: Cdk 6 IC50
# Procedure: The Cdk4 and Cdk6 inhibitory activity of the compounds is measured with a kinase inhibition assay using recombinant Cdk4/CyclinD1 or Cdk6/CyclinD3 protein complexes. The protein substrate used in the assay is the retinoblastoma protein (Rb). The kinase reactions are carried out in a 96-well filter plate (MSDV N6B50, Millipore). […] The mixture is incubated at room temperature for 1 hour and the proteins precipitated with an equal volume of 20% TCA. The plates are washed with 10% TCA according to the manufacturer's instruction and dried at room temperature. The amount of the phosphorylated Rb is determined with a TopCount (PerkinElmer). The IC50 of a compound is determined by nonlinear regression curve fitting using software program Prism 5 (GraphPad Software).
# Sequence of Cdk6/CyclinD3 (Q00534 whole entry): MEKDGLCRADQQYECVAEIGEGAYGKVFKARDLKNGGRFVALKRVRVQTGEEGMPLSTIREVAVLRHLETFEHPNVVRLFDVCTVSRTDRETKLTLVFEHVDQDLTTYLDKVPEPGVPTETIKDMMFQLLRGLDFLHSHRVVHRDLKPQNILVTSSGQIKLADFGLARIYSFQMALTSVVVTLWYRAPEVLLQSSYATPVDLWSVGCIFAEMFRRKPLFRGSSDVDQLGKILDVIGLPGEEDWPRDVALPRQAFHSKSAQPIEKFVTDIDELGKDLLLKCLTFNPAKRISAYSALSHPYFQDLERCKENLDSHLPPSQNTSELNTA
# Sequence of Cdk6/CyclinD3 (P30281 whole entry partner): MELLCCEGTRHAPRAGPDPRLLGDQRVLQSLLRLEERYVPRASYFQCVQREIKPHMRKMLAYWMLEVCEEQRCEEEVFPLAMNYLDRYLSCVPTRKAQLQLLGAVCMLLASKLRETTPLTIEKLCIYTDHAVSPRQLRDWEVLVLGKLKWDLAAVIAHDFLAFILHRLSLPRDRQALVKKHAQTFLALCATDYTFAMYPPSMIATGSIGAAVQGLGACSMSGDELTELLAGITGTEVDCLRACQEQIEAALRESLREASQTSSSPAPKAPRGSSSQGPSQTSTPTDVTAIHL
row,SMILES,IC50 [nM]
1,C[C@H](O)CNC1CCN(c2ccc(Nc3ncc4c5ccncc5n(C5CCCC5)c4n3)nc2)CC1 [Example 459],14
2,"O[C@H]1CCN(c2ccc(Nc3ncc4c5ccnc(F)c5n(C5CCCC5)c4n3)nc2)C1 [Example 186B, (3S)-1-(6-((9-cyclopentyl-8-fluoro-9H-pyrido[4′,3′:4,5]pyrrolo[2,3-d]pyrimidin-2-yl)amino)-3-pyridinyl)-3-pyrrolidinol]",4.8
